{
  "source": "patent US6689813B2",
  "about": "(Biostatin Gyogyszerkutato-Fejleszto kft., priority 1998, dated 2004)",
  "key": {"Wistar rats [1]": {"test_system": "Wistar rats", "assay": "0.5% dextran-induced non-neurogenic inflammation (foot swelling, plethysmometer) after chronic denervation", "format": "in vivo, rat", "protocol": "This test is based on the fact that a non-neurogenic, so-called clearly chemical inflammation can be induced by chemical excitation (e.g. by dextran, carrageenin, formalin) on a chronically denervated body area at least 5 days following the transsection of the nerve. These chemical agents release inflammation-inducing substances (histamine, bradykinin, PAF, prostaglandins and leucotrienes) from immunocytes, chiefly from mast cells.\nDextran solution (0.1 ml, 0.5%) is administered into both feet, underneath the plantar skin of Wistar rats (5 to 7 animals in each group) anaesthetized by nembutal (40 mg/kg i.v.) 5 days after bilateral denervation (transsection of the saphenous and sciatic nerves) of the lower limbs. The pretreated animals received somatostatin (SS), ocreotide or TT-232 (10 μg/kg i.p.) 10 minutes earlier. Before the administration of dextran (0 minute value), then after 10, 20 and 30 minutes, respectively, the swelling of the feet was measured by using a plethysmometer (Ugo Basil). Dextran elicits the so-called clearly chemical inflammation in the feet deprived of nerve supply (innervation) through the transmitters released from the mast cells.\nA dose/effect ratio was determined for each substance."}, "rats": {"test_system": "rats", "assay": "Bradykinin-induced non-neurogenic inflammation (Evans blue extravasation) after chronic denervation", "format": "in vivo, rat", "protocol": "After chronic denervation (see 1.2.1.), each group of 5 rats received various doses (1, 2.5, 5, 10 or 20 μg, respectively, i.v.) of TT-232 and simultaneously Evans blue (50 mg/kg i.v.). Ten minutes later, bradykinin was injected underneath the plantar skin of the lower limbs of the rats. After 15 minutes the animals were bled and the amount of the extravasated Evans blue (expressed as […] related to the wet tissue) was determined as.described above (1.1.)."}, "Wistar rats [2]": {"test_system": "Wistar rats", "assay": "Analgetic action: vegetative (pseudoaffective) reflex responses to mustard oil and capsaicin under urethane anaesthesia", "format": "in vivo, rat", "parameters": "Increase in heart rate: unit not given here", "settings": "10 μg/kg i.p.", "from_the_text": "This test is based on the synchronous registration of several components of so-called pseudoaffective reflex responses, which can be induced on animals by pain-producing stimuli [Lim, R. K. S.: J. Comp. Neurol 118, 269-294 (1962)] under urethane anaesthesia.\nA significant blood pressure increase of 45 mmHg as an average pressor response, heart rate increase of 85 (as an average) and hyperpnoea (the number of respirations increases by 61 per minute as an average) can be observed in control animals on the effect of strong chemonociceptive stimuli (painting of the lower limbs with 1% mustard oil or dropping a capsaicin solution of 100 μg/ml concentration into the eye) under urethane anaesthesia.\nThe blood pressure, heart rate and respiration of intact Wistar rats (5 to 7 animals in each group, with a body weight of 250 to 350 g) were continuously registered for 40 minutes through an arterial cannula as well as double ramifying trachea cannula. Ten minutes before beginning the measurement, the pretreated animals received intraperitoneally 10 μg/kg of somatostatin (SS), octreotide or TT-232, respectively. Both lower limbs of the animals were painted with mustard oil in the 3rd minute and capsaicin solution was dropped into their eyes in the 23rd minute. The vegetative responses given on these nociceptive stimuli were evaluated by using a specific computer program."}, "unanaesthetized animals": {"test_system": "unanaesthetized animals", "assay": "Mechanical nociceptive threshold, Randall-Selitto test after carrageenin", "format": "in vivo", "settings": "30 minutes after carrageenin", "protocol": "The mechanical nociceptive threshold was investigated by using the Randall-Selitto test (Ugo Basil equipment) on unanaesthetized animals. Before the beginning of the experiment, the animals were tested several times to provide their adaptation to the experimental conditions. The animals received TT-232 in various concentrations (1.25, 2.5, 5, 10 μg i.v.) and after 15 minutes, carrageenin (0.1 ml of 1% solution) was injected into the plantar skin of the lower limbs of the animals."}, "[3]": {"test_system": "release of sensory neuropeptides from the trachea of rats", "assay": "In vitro release of sensory neuropeptides (SP, CGRP, SOM) from the trachea of rats, RIA", "parameters": "species or system rat", "protocol": "After bleeding out, the tracheas of two rats each were removed, placed into an organ bath (1.8 ml) and Krebs solution saturated with oxygen (95% of oxygen and 5% of carbon dioxide) was bubbled through it at 37° C. for 60 minutes (with a rate of 1 ml/min). After stopping the flow, the bath solution was changed 3 times (pre-stimulated—stimulated—post-stimulated) for 8 minutes. The release of sensory neuropeptides from the tissue samples was induced by electric (40 V, 0.1 ms, 10 Hz, 120 s) and chemical (10^−7 M of capsaicin) stimulation, in the presence or absence of TT-232 (200 nM, 500 nM). The fractions were collected in ice-cold tubes; the wet weights of tracheas were measured. The concentrations of substance P (SP), calcitonin gene-related peptide (CGRP) and somatostatin (SOM) were determined by using a specific radioimmunoassay (RIA) developed in our laboratory and expressed as the amount of peptide released from one g of tissue. The limits of measurements were: 2 fmol/tube for SP; 1 fmol/tube for CGRP; and 2 fmol/tube for SOM [Németh, J.: Acta Physiol. Hung. 84, 313-315 (1996); Helyes, Zs.: Br. J. Pharmacol. 121, 613-615 (1997)]."}, "[4]": {"settings": "capsaicin stimulation, 200 nM TT-232"}, "[5]": {"settings": "capsaicin stimulation, 500 nM TT-232"}, "[6]": {"settings": "electrical stimulation, 500 nm TT-232"}},
  "note": "Where no end group is shown, it is not given here. [ ]: non-standard residue; d: D form.",
  "data": [
    {"substance": "D-Phe-Cys-Tyr-D-Trp-Lys-Cys-Thr-NH2 ([dF]CY[dW]KCT-NH2; cysteine pairing not given here) [TT-232]", "values": [
      {"measurement": "prevention of dextran-induced non-neurogenic inflammation (in words)", "setting": "Wistar rats [1]; 10 μg/kg, even 40 minutes following the pretreatment", "result": "significantly prevented"},
      {"measurement": "foot swelling %", "setting": "Wistar rats [1]; Table 2.a, 0.5 μg/kg, 10 minutes", "result": "27.63 ± 3.5", "unit": "%"},
      {"measurement": "foot swelling %", "setting": "Wistar rats [1]; Table 2.a, 0.5 μg/kg, 20 minutes", "result": "39.94 ± 3.07", "unit": "%"},
      {"measurement": "foot swelling %", "setting": "Wistar rats [1]; Table 2.a, 0.5 μg/kg, 30 minutes", "result": "41.33 ± 5.95", "unit": "%"},
      {"measurement": "foot swelling %", "setting": "Wistar rats [1]; Table 2.a, 1.0 μg/kg, 10 minutes", "result": "20.51 ± 2.92", "unit": "%"},
      {"measurement": "foot swelling %", "setting": "Wistar rats [1]; Table 2.a, 1.0 μg/kg, 20 minutes", "result": "38.07 ± 3.12", "unit": "%"},
      {"measurement": "foot swelling %", "setting": "Wistar rats [1]; Table 2.a, 1.0 μg/kg, 30 minutes", "result": "44.32 ± 3.18", "unit": "%"},
      {"measurement": "foot swelling %", "setting": "Wistar rats [1]; Table 2.a, 2.5 μg/kg, 10 minutes", "result": "20.54 ± 5.16", "unit": "%"},
      {"measurement": "foot swelling %", "setting": "Wistar rats [1]; Table 2.a, 2.5 μg/kg, 20 minutes", "result": "33.02 ± 4.46", "unit": "%"},
      {"measurement": "foot swelling %", "setting": "Wistar rats [1]; Table 2.a, 2.5 μg/kg, 30 minutes", "result": "39.59 ± 4.76", "unit": "%"},
      {"measurement": "foot swelling %", "setting": "Wistar rats [1]; Table 2.a, 5.0 μg/kg, 10 minutes", "result": "17.29 ± 3.13", "unit": "%"},
      {"measurement": "foot swelling %", "setting": "Wistar rats [1]; Table 2.a, 5.0 μg/kg, 20 minutes", "result": "27.81 ± 2.39", "unit": "%"},
      {"measurement": "foot swelling %", "setting": "Wistar rats [1]; Table 2.a, 5.0 μg/kg, 30 minutes", "result": "35.95 ± 2.97", "unit": "%"},
      {"measurement": "foot swelling %", "setting": "Wistar rats [1]; Table 2.a, 10 μg/kg, 10 minutes", "result": "17.60 ± 2.05", "unit": "%"},
      {"measurement": "foot swelling %", "setting": "Wistar rats [1]; Table 2.a, 10 μg/kg, 20 minutes", "result": "27.59 ± 2.5", "unit": "%"},
      {"measurement": "foot swelling %", "setting": "Wistar rats [1]; Table 2.a, 10 μg/kg, 30 minutes", "result": "36.40 ± 1.71", "unit": "%"},
      {"measurement": "foot swelling %", "setting": "Wistar rats [1]; Table 2.a, 20 μg/kg, 10 minutes", "result": "19.56 ± 1.71", "unit": "%"},
      {"measurement": "foot swelling %", "setting": "Wistar rats [1]; Table 2.a, 20 μg/kg, 20 minutes", "result": "29.73 ± 1.7", "unit": "%"},
      {"measurement": "foot swelling %", "setting": "Wistar rats [1]; Table 2.a, 20 μg/kg, 30 minutes", "result": "37.67 ± 2.33", "unit": "%"},
      {"measurement": "prevention of foot-swelling compared with diclofenac and meloxicam (in words)", "setting": "Wistar rats [1]; Table 2.a, TT-232 concentration a thousandth part of the others", "result": "more effectively"},
      {"measurement": "foot swelling %", "setting": "Wistar rats [1]; Table 2, 10 μg/kg i.p. 10 min before dextran, 10 minutes, control 32.97", "result": 24.4, "unit": "%"},
      {"measurement": "foot swelling %", "setting": "Wistar rats [1]; Table 2, 10 μg/kg i.p. 10 min before dextran, 20 minutes, control 49.695", "result": 34.39, "unit": "%"},
      {"measurement": "foot swelling %", "setting": "Wistar rats [1]; Table 2, 10 μg/kg i.p. 10 min before dextran, 30 minutes, control 56.68", "result": 29.43, "unit": "%"},
      {"measurement": "Evans blue extravasation", "setting": "rats; TT-232 1 μg/kg i.v., control (buffer) 127.35 ± 7.11", "result": "98.21 ± 7.44", "unit": "µg/kg"},
      {"measurement": "Evans blue extravasation", "setting": "rats; TT-232 2.5 μg/kg i.v.", "result": "85.02 ± 7.33", "unit": "µg/kg"},
      {"measurement": "Evans blue extravasation", "setting": "rats; TT-232 5 μg/kg i.v.", "result": "81.95 ± 7.64", "unit": "µg/kg"},
      {"measurement": "Evans blue extravasation", "setting": "rats; TT-232 10 μg/kg i.v.", "result": "86.31 ± 8.74", "unit": "µg/kg"},
      {"measurement": "Evans blue extravasation", "setting": "rats; TT-232 20 μg/kg i.v.", "result": "77.4 ± 4.59", "unit": "µg/kg"},
      {"measurement": "protection against pseudoaffective reflex triad elicited by mustard oil and capsaicin (in words)", "setting": "Wistar rats [2]; 10 minutes before mustard oil", "result": "practically complete protection"},
      {"measurement": "Increase in respiration rate", "setting": "Wistar rats [2]; after dropping capsaicin solution into the eye, control 47.5", "result": 17.85, "unit": "per minute"},
      {"measurement": "Increase in mean arterial pressure", "setting": "Wistar rats [2]; after dropping capsaicin solution into the eye, control 55", "result": 13, "unit": "mmHg"},
      {"measurement": "Increase in heart rate", "setting": "Wistar rats [2]; after dropping capsaicin solution into the eye, control 143", "result": 22.88},
      {"measurement": "Increase in mean arterial pressure", "setting": "Wistar rats [2]; after painting the feet by mustard oil, control 45.4", "result": 4.86, "unit": "mmHg"},
      {"measurement": "Increase in respiration rate", "setting": "Wistar rats [2]; after painting the feet by mustard oil, control 60.75", "result": 12, "unit": "per minute"},
      {"measurement": "Increase in heart rate", "setting": "Wistar rats [2]; after painting the feet by mustard oil, control 84.8", "result": 13.71},
      {"measurement": "increase in the nociceptive threshold (analgetic effect)", "setting": "unanaesthetized animals; 1.25 μg i.v.", "result": 30, "unit": "%"},
      {"measurement": "increase in the nociceptive threshold (analgetic effect)", "setting": "unanaesthetized animals; 2.5 μg i.v.", "result": 37, "unit": "%"},
      {"measurement": "increase in the nociceptive threshold (analgetic effect)", "setting": "unanaesthetized animals; 5 μg i.v.", "result": 50, "unit": "%"},
      {"measurement": "increase in the nociceptive threshold (analgetic effect)", "setting": "unanaesthetized animals; 10 μg i.v.", "result": 60, "unit": "%"},
      {"measurement": "decrease of capsaicin-induced SOM release", "setting": "[3]; [4]", "result": 48, "unit": "%"},
      {"measurement": "decrease of capsaicin-induced SP release", "setting": "[3]; [4]", "result": 44, "unit": "%"},
      {"measurement": "inhibition of capsaicin-induced CGRP release", "setting": "[3]; [5]", "result": 27, "unit": "%"},
      {"measurement": "inhibition of capsaicin-induced SOM release", "setting": "[3]; [5]", "result": 74, "unit": "%"},
      {"measurement": "inhibition of capsaicin-induced SP release", "setting": "[3]; [5]", "result": 79, "unit": "%"},
      {"measurement": "inhibition of CGRP release", "setting": "[3]; [6]", "result": 48, "unit": "%"},
      {"measurement": "inhibition of SOM release", "setting": "[3]; [6]", "result": 42, "unit": "%"},
      {"measurement": "inhibition of SP release", "setting": "[3]; [6]", "result": 36, "unit": "%"},
      {"measurement": "amount of SOM released", "setting": "[3]; electrical stimulation, 500 nm TT-232, without TT-232 0.51 fmol/mg", "result": 0.39, "unit": "fmol/mg"},
      {"measurement": "amount of CGRP released", "setting": "[3]; electrical stimulation, 500 nm TT-232, without TT-232 0.69 fmol/mg", "result": 0.36, "unit": "fmol/mg"},
      {"measurement": "amount of SP released", "setting": "[3]; electrical stimulation, 500 nm TT-232, without TT-232 6 fmol/mg", "result": 3.8, "unit": "fmol/mg"},
      {"measurement": "basal, non-stimulated release of the neuropeptides (in words)", "setting": "[3]; no stimulation", "result": "not affected"}
    ]}
  ]
}
